Assay results published in patent US5696276A, “Process for preparing 5,8-dihydroxynaphthoquinone derivatives, novel 5,8-dihydroxynaphthoquinone derivatives and their use as anticancer agent” (Kuhnil Pharmaceutical Co., Ltd., priority 1993, dated 1997).
In brackets after ≈: the same amount, converted by molar mass.

Legend:
L1210 cancer = settings: Chem. Pharm. Bull. 25, 2392-2395 (1977); cited from earlier work
S-180 ascitic cancer = settings: mouse suffering from S-180 ascitic cancer; Chem. Pharm. Bull. 25, 2392-2395 (1977); cited from earlier work
HL-60 cells = test: Cytotoxic activity against HL-60 cells; type: cell-based; settings: Homo sapiens; HL-60 cells, 48 hours, 37° C.; read-out: ED50, cytotoxic activity against HL-60
Experimental: As in the test for the cytotoxic activity against L1210 cells, the test samples were dissoved in ethanol or dimethylsulfoxide in a certain concentration. 0.1 ml of the sample solution was mixed with 0.9 ml of a fresh medium to prepare the dilutions. To each two test tubes having a screw cap were added 100, 50, 25 μl, respectively, of the sample dilutions by means of a micropipet. To each test tube for the test group and the control group (2√n: n=number of the samples) was added 5 ml of the dilutions of HL-60 cells and K-562 cells which were cultured and activated before 24 hours from the beginning of experiment and then diluted in a concentration of 1×10^5 cells/mi. All test tubes were cultured for 48 hours in a CO2 incubator at 37° C. and then the number of cells was counted using a haemacytometer.
The ED50 value is defined as a concentration (μg/ml) of the sample which inhibits the growth of cancer cells by 50% of the control group and determined according to a method described in NIC's mannual (NIC=National Cancer Institue, U.S.A.). The growth rate Y(%) of cells in the presence of the test sample in each concentration was calculated according to the followign equation: […]
In the above equation, T means the average cell number per ml in the test group after incubation for 48 hours in the presence of the test samples in each concentration, C means the average cell number per ml in the control group after incubation for 48 hours, and Co means the average cell number per ml in the control group at the beginning of incubation. The Y(%) value at each concentration and log10 value of each concentration were obtained and the regression curve was constructed according to the following equation from those obtained values. In this case, when all the Y(%) value obtained at each concentration is greater than 55% or lower than 45%, the experiment was repeatedly conducted.
To construct the regression curve Y=A+BX the values A and B were obtained using the following equation. [formula]
In the above, the value N is the number of selected points which is greater than 2 and lower than, or identical with, the number of cencentration of the test sample, Xi is log(concentration) i, and Yi is the growth ratio at (concentration)i. The value of ED50 was obtained for those obtained slope and intercept.

K-562 cells = test: Cytotoxic activity against K-562 cells; type: cell-based; settings: Homo sapiens, K562, 48 h, read-out: ED50, cytotoxic activity against K562
Procedure, shortened: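 HL-60 and K-562 cells (1×10^5 cells/ml) incubated 48 h at 37° C with sample dilutions from ethanol or DMSO stocks; cells counted by haemacytometer. ED50 (μg/ml) is the concentration giving 50% growth inhibition versus control, taken from linear regression of growth rate against log concentration.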

L1210 cells [1] = test: Cytotoxic activity against L1210 cells; type: cell-based; settings: Mus musculus; L1210 cells, 48 hours, 37° C.; read-out: ED50, cytotoxic activity against L1210
Procedure, shortened: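 Log-phase L1210 cells (5×10^4 cells/ml) in Fisher medium exposed 48 h at 37 °C in CO2 to three dilutions of sample dissolved in ethanol or DMSO. Cells counted by haemacytometer; growth relative to control; ED50 (μg/ml) from linear regression of growth % on log concentration.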

A549 cancer cells = test: Cytotoxic activity against A549 cancer cells (sulforhodamin B method); type: cell-based; settings: Homo sapiens; A549 cells, SRB method, 48 hours; read-out: ED50, cytotoxic activity against A549
Procedure, shortened: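 Cells seeded at 8×10^4 per well, attached 24 h, then exposed 48 h to six log-spaced concentrations in triplicate. TCA-fixed, SRB-stained, OD read at 520 nm; growth inhibition computed relative to time-zero and untreated counts, IC50 from regression.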

S-180 sarcoma = settings: Kor. J. Pharm. Soc., 34, 262-266 (1990); cited from earlier work
S-180 sarcoma cells = test: Animal experiment using Sarcoma S-180 cells (survival of mouse); type: in vivo, male ICR mouse; settings: for responders at 10 µmol/kg / response vs control in vivo at 10 µmol/kg: daily dose 10 μmole (mg/kg/day given per compound)
Procedure, shortened: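 Male ICR mice (20 to 25 g) received intraperitoneal transplants of 0.1 ml S-180 cell suspension (10^7 cells/ml), prepared from ascites by washing in cold physiological saline. After 24 hours, groups of 8 to 9 mice received 7 to 8 ip injections of sample in dimethylsulfoxide diluted with saline. Controls got 2% dimethylsulfoxide-saline. Survival (T/C, %) was scored against control death.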

L1210 cells [2] = settings: Kor. J. Pharm. Soc., 34, 262-266 (1990); cited from earlier work
[3] = ip, 1200 h, S-180 ICR mouse, intraperitoneal, 7 to 8 injections, read-out: Number of mouse survived for 50 days (converted)
[4] = ip, S-180 ICR mouse, intraperitoneal, 7 to 8 injections, read-out: T/C

Structure (SMILES)	IC50 (HL-60 cells)	IC50 (L1210 cells [1])	IC50 (A549 cancer cells)	responders at 10 µmol/kg (S-180 sarcoma cells; [3])	response vs control in vivo at 10 µmol/kg (S-180 sarcoma cells; [4])	also measured
CC(C)=CC[C@@H](O)C1=CC(=O)c2c(O)ccc(O)c2C1=O [shikonin]						effect in mouse suffering from L1210 cancer (L1210 cancer): does not show a significant effect; increase in life span (LSI) (S-180 ascitic cancer): 92%
O=c1[nH]cc(F)c(=O)[nH]1 [5-Fluorouracil, reference compound]	0.2 µg/mL (≈ 1.54 µM)	0.02 µg/mL (≈ 0.154 µM)	3.7 µg/mL (≈ 28.4 µM)			IC50 (K-562 cells): 1 µg/mL (≈ 7.69 µM)
CC(=O)OC(CC=C(C)C)C1=CC(=O)c2c(O)ccc(O)c2C1=O (stereo not drawn) [2-(1-acetyloxy-4-methyl-3-pentenyl)-5,8-dihydroxy-1,4-naphthoquinone]	0.06 µg/mL (≈ 0.182 µM)	< 0.01 µg/mL	1 µg/mL (≈ 3.03 µM)			LSI in mouse suffering from S-180 sarcoma (S-180 sarcoma): 85%; responders at 5 µmol/kg (S-180 sarcoma cells; Mus musculus, S-180, ip, 1200 h, read-out: Number of mouse survived for 50 days): 0%; response vs control in vivo at 5 µmol/kg (S-180 sarcoma cells; ip, S-180 ICR mouse, intraperitoneal, daily dose 5 μmole (mg/kg/day given per compound), 7 to 8 injections, read-out: T/C): 160%; ED50 value against L1210 cells (L1210 cells [2]): 0.01 µg/mL (≈ 0.0303 µM)
CCCC(=O)OC(CC=C(C)C)C1=CC(=O)c2c(O)ccc(O)c2C1=O (stereo not drawn) [2-(1-n-butanoyloxy-4-methyl-3-pentenyl)-5,8-dihydroxy-1,4-naphthoquinone]	0.1 µg/mL (≈ 0.279 µM)	0.01 µg/mL (≈ 0.0279 µM)	2.5 µg/mL (≈ 6.98 µM)	0%	181%	
C=CCCCCC(=O)OC(CC=C(C)C)C1=CC(=O)c2c(O)ccc(O)c2C1=O (stereo not drawn) [2-[1-(6-heptenoyl)oxy-4-methyl-3-pentenyl]-5,8-dihydroxy-1,4-naphthoquinone]	0.5 µg/mL (≈ 1.25 µM)	0.2 µg/mL (≈ 0.502 µM)	4.2 µg/mL (≈ 10.5 µM)	12.5%	192%	
C=CCC/C=C/C(=O)OC(CC=C(C)C)C1=CC(=O)c2c(O)ccc(O)c2C1=O (stereo not drawn) [2-[1-(trans-2,6-heptadienoyloxy)-4-methyl-3-pentenyl]-5,8-dihydroxy-1,4-naphthoquinone]	0.9 µg/mL (≈ 2.27 µM)	1.3 µg/mL (≈ 3.28 µM)	3.8 µg/mL (≈ 9.59 µM)	12.5%	180%	
CC(C)=CCC(OC(=O)C=C(C)C=CC=C(C)C=CC1=C(C)CCCC1(C)C)C1=CC(=O)c2c(O)ccc(O)c2C1=O (stereo not drawn) [2-[1-(cis-retinoyl)oxy-4-methyl-3-pentenyl]-5,8-dihydroxy-1,4-naphthoquinone]	6.6 µg/mL (≈ 11.6 µM)	7.1 µg/mL (≈ 12.4 µM)	> 20 µg/mL			responders at 15 µmol/kg (S-180 sarcoma cells; ip, 1200 h, S-180 ICR mouse, intraperitoneal, daily dose 15 μmole (mg/kg/day given per compound), 7 to 8 injections, read-out: Number of mouse survived for 50 days (converted)): 0%; response vs control in vivo at 15 µmol/kg (S-180 sarcoma cells; ip, S-180 ICR mouse, intraperitoneal, daily dose 15 μmole (mg/kg/day given per compound), 7 to 8 injections, read-out: T/C): 125%
